Data published in patent publication US20180290977A1, “KDM4 INHIBITORS” (Albert-Ludwigs-University Freiburg, priority 2017, published 2018).
Where two headings read alike, the source gives them in different places.

Legend:
KDM4B = molecular target: T1, KDM4B (Homo sapiens, UniProt O94953); assay: KDM demethylase inhibition (IC50); format: biochemical
T1 sequence (O94953 1-1096): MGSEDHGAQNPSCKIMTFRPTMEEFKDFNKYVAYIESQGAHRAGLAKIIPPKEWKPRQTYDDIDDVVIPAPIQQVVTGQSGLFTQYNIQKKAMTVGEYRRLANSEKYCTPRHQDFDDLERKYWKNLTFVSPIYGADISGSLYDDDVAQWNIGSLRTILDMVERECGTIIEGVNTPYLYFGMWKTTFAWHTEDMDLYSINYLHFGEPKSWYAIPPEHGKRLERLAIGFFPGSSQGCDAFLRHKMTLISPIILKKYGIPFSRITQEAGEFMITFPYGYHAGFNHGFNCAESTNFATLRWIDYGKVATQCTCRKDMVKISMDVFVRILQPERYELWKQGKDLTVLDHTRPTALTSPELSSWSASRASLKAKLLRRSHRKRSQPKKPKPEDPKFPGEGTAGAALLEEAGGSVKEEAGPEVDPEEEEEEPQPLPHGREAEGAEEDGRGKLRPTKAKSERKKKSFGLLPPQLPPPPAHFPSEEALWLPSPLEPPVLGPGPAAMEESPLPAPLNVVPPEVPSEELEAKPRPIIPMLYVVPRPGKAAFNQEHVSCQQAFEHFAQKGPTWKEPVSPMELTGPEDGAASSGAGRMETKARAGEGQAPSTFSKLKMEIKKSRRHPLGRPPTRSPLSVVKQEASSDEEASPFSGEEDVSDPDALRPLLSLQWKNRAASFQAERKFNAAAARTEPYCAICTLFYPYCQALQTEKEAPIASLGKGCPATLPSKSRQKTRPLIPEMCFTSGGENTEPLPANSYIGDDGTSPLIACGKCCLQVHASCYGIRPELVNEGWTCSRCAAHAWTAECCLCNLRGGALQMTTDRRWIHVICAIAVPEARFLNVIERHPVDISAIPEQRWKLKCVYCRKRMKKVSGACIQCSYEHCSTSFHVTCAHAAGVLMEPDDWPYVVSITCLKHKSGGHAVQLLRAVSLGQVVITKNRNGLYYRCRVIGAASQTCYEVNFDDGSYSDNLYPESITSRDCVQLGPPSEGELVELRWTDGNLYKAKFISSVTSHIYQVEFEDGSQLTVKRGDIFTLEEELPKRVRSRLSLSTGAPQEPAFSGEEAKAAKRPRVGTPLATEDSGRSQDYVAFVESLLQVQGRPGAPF

KDM4C = molecular target: T2, KDM4C (Homo sapiens, UniProt Q9H3R0); assay: KDM demethylase inhibition (IC50); format: biochemical
T2 sequence (Q9H3R0 1-1056): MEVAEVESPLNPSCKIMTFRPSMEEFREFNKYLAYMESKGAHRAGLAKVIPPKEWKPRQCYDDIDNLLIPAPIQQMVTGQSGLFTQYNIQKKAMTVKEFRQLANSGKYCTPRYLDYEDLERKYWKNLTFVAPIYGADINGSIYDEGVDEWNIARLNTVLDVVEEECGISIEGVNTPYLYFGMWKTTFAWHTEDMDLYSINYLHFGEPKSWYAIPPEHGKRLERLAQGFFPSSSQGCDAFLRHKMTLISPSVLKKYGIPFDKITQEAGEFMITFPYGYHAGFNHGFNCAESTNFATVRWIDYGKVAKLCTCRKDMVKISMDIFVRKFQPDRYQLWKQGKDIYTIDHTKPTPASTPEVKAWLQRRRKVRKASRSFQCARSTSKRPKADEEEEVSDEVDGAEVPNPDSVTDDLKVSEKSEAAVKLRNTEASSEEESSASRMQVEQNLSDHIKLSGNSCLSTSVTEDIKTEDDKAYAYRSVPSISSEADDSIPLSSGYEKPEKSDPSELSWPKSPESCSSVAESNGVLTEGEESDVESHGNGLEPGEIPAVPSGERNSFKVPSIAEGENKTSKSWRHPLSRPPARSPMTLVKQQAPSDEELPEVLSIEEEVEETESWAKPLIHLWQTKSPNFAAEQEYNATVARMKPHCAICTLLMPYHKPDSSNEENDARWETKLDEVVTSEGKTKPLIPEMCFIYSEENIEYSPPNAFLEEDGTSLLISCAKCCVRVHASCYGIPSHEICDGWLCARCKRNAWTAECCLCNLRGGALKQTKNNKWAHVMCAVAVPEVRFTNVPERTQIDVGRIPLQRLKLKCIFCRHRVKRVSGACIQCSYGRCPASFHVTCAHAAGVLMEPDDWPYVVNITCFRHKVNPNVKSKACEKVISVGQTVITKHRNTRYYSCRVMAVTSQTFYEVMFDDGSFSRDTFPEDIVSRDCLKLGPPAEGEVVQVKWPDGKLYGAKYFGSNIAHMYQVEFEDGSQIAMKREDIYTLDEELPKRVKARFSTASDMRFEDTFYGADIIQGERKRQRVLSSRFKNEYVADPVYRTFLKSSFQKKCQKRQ

[1] = read-out: IC50, demethylase activity

CN(c1ccccc1)c1ccc2c(c1)CCC[C@H]2CNc1cnccc1C(=O)O [Compound I, 3-({[(1R)-6-[methyl(phenyl)amino]-1,2,3,4-tetrahydronaphthalen-1-yl]methyl}amino)pyridine-4-carboxylic Acid]
IC50 (KDM4B; read-out: Compound I IC50): 56 nM
IC50 (KDM4B; [1]): < 105 nM
IC50 (KDM4C; read-out: Compound I IC50): 35 nM
IC50 (KDM4C; [1]): < 105 nM
